Patent US6355232B1, “Agent for protecting skin and hair moisture” (Takasago International Corporation, priority 1996, dated 2002)

Legend:
[1] = Water-barrier function (WBF) test, water-evaporation rate; assay type: physicochemical; details: for Water-evaporation rate (mg/hr/cm2): ceramide/CL/CS (40/30/30) dispersed with 10% arginine oleate, 37° C., humidity 40%
Experimental: (§1) A sample solution was prepared, based upon the lamellar liquid crystal (LLC) method of various methods for preparing liposome [Colloids and Surfaces, 69, p.125 (1992)]. Appropriate amounts of the lipid mixture (for example, Ce II (2S,3R)/CL/CS, a weight ratio of 40/30/30, corresponding to the LLC region of the phase diagram) were weighed into a test tube, allowed to stand at 135° C. for 10 minutes, cooled down to room temperature and then appropriate amounts of propylene glycol/glycerol (a weight ration of 1/1) were added to the mixture. These samples were left at 135° C. for 10 minutes and then shaken vigorously. This procedure was repeated three times. Then, oleic acid and an aqueous solution of L-arginine were added in turn and shaken (80 to 90° C.). The LLC gel thus obtained was diluted with a buffer of pH 6.86 to give a vesicle solution of a uniform mixture of ceramides.
A sample solution was coated over a supporting membrane covered with a protein at the surface and left under vacuum overnight to remove water thoroughly. The membrane was fixed in the stainless dish containing 20 ml of water and allowed to stand at 37° C. and a humidity of 40%. The evaporated water was calculated per time unit and area unit to determine the water-evaporation rate of WBF.
All samples tested as shown in Table 4 were mixtures of ceramide/CL/CS (40/30/30) and dispersed with 10% arginine oleate.
All samples tested as shown in Table 5 were mixtures of ceramide/CL/CS (40/30/30) and dispersed with 10% arginine oleate.

[2] = Solubility in cosmetic solvents; assay type: physicochemical
Experimental: Solubilities of ceramide-II (hereinafter referred to as CeII) of (2S,3R) type and ceramides of other optical isomers were studied. Ethanol, isopreneglycol, propylenglycol, glycerol, oleic acid, ethyl oleate and isopropyl myristate were used as the cosmetic solvents. Each sample was heated up to about 90° C. with vigorous shaking and cooled down to room temperature and then observed visually. 1.

[3] = Water-holding capacity (WHC) test of sample solution; assay type: physicochemical
Experimental: as §1
A sample solution was applied to a small petri dish and left at 37° C. and a humidity of 40%. The water evaporated as the time lapsed was measured and the ratio of the water remaining in the sample was calculated from the measured value to study WHC.
The samples tested as shown in Table 2 were all mixtures of ceramide/CL/CS (40/30/30) and dispersed with 10% arginine oleate. A control was an aqueous solution of propyleneglycol/glycerol (1/1). […]

[4] = tested on: forearm treated with chloroform/methanol (damaged skin); assay: Transepidermal water-loss (TEWL) test; assay type: in vivo, human; details: for TEWL (g/m^2/hr): ceramide/CL/SSL (50/20/30) dispersed with 10% arginine oleate, forearm, twice per day for 2 days, data after 10 hours
Experimental: The forearm was treated with chloroform/methanol (1/1), each sample was coated on the site and TEWL was determined (n=4, twice per day, used for 2 days).
All tested samples were the (2S,3R) type and the (2S,3S) type and were mixtures of ceramide/CL/SSL (=sodium stearyllactate) (50/20/30). They were dispersed with 10% arginine oleate.

[5] = Test on conditioner effect to hair (WHC); details: ceramide/CL/SA (40/20/40) dispersed with 10% arginine oleate, 35° C., humidity 70% overnight
Experimental: Hairs were treated with chloroform/methanol (2/1) and bundles of hairs were coated with samples, rinsed away and then dried under vacuum overnight. They were left at 35° C. and a humidity of 70% overnight. They were weighed to determine the hydrated amount to the dried hairs as WHC.
All tested samples were the (2S,3R) type and the (2S,3S) type and were mixtures of ceramide/CL/SA (=stearic acid) (40/20/40). They were dispersed with 10% arginine oleate.

solubility in cosmetic solvents ([2]; compared among Ce II isomers) | level dissolved in ethanol ([2]; ethanol) | melting point | Structure (SMILES) | Water-evaporation rate (mg/hr/cm2) ([1]; Table 5) | Water-holding capacity (%) (After 5 hours) ([3]; ceramide/CL/CS (40/30/30) dispersed with 10% arginine oleate, 37° C., humidity 40%, after 5 hours) | water-holding capacity compared ([3]; versus the racemates, the SP ceramide, etc.) | Water-evaporation rate (mg/hr/cm2) ([1]; Table 4) | capacity to restrain the water evaporation ([1]; versus other types) | TEWL (g/m^2/hr) [4] | TEWL improvement ([4]; compared with uncoated sites / non-treated normal skin) | Water-holding capacity (%) [5]
 |  |  | CCCCCCCCCCCCCCCCCC(=O)N[C@H](CO)[C@@H](O)CCCCCCCCCCCCCCC [(2R,3S), erythro (2R, 3S) type of ceramide-II, reference compound] | 2.9 mg/hr/cm2 |  |  |  |  |  |  | 
lowest solubility | 0.1% | 95 to 96 °C | CCCCCCCCCCCCCCCCCC(=O)N[C@@H](CO)[C@H](O)CCCCCCCCCCCCCCC [(2S,3R), ceramide-II of erythro (2S,3R) type] | 2.5 mg/hr/cm2 | 22.4% | significantly higher water-holding capacity | 2.5 mg/hr/cm2 | more superior to other types | 2.8 g/m^2/hr | can recover to the TEWL value of the non-treated normal skin more rapidly | 8.2%
 |  | 101 °C | CCCCCCCCCCCCCCCCCC(=O)N[C@@H](CO)[C@@H](O)CCCCCCCCCCCCCCC [(2S,3S), threo (2S, 3S) type of ceramide-II] | 3.6 mg/hr/cm2 |  |  |  |  | 4.1 g/m^2/hr |  | 
